From US8951560B2, “Isoflavone nanoparticles and use thereof” (DSM IP Assets B.V., priority 2005, dated 2015)

Legend:
[1] = "swing" test (changing temperature test) of genistein-containing emulsions (Example 10); format: physicochemical; settings: FIG. 7, comparative: emulsions with example 7 genistein after dry grinding in a Jet mill, 0.3%, 0.5%, 0.1%; ten sequences 5° C./43° C.
Protocol: To force the crystallization in a disperse system, a test was used in which the temperature is changed over a self-defined timeframe and in self-defined sequences. The test is called “swing” test (changing temperature test). The purpose of this test is to dissolve small particles at the higher temperature and to force re-crystallization at lower temperature. […] The following formulations were used for the “swing” test: […]
Oil- and water phase (o+w) were separately heated up to 70° C. (±5° C.) and were added together. The thickening agent (t) was added under moderate agitation. The mixture was homogenized for 30 seconds at 24,000 RPM by means of an Ultra-Turrax T25 homogenizer. The emulsion was cooled down slowly to 45° C.±5° C. under moderate stirring (horseshoe mixer, 120 RPM). At this temperature the pH value was adjusted to pH 6.5-7.0 by adding base (b). Genistein (g) was added to the still fluid emulsion and was incorporated by homogenizing again for 30 sec. 24,000 RPM by means of an Ultra-Turrax T25 homogenizer. The formulation was cooled down to 25° C.±5° C. under moderate stirring (horseshoe mixer, 120 RPM). […]
FIGS. 5 to 7 show the results of the “swing” test. […] The following genistein samples and concentrations were employed and the emulsions were measured immediately after preparation and after subjecting the samples to ten sequences of the “swing” test: […]

[2] = Genistein particle size by laser diffraction technique (Mastersizer 2000); format: physicochemical
[3] = Example 1, after homogenization (42 passes) and spray-drying, powder re-dispersed in water
[4] = Example 1, after homogenization (42 passes), 1500 bar, with starch sodium octenyl succinate, aqueous suspension
[5] = Example 1, before homogenization
[6] = Example 2, after homogenization (40 passes), 1500 bar, water only, no carrier
[7] = Example 2, after homogenization (42 passes) and spray-drying, powder re-dispersed in water
[8] = Example 2, after homogenization (42 passes), starch sodium octenyl succinate solution added after 40th pass
[9] = Example 2, before homogenization
[10] = Example 3, after homogenization (40 passes), 1500 bar, water only, no carrier
[11] = Example 3, after homogenization (42 passes) and spray-drying, powder re-dispersed in water
[12] = Example 3, after homogenization (42 passes), starch sodium octenyl succinate solution added after 40th pass
[13] = Example 3, before homogenization
[14] = Example 4, after homogenization (20 passes), 700 bar, water only, no carrier, about 20% solid
[15] = Example 4, before homogenization
[16] = Example 5, Table XI, after homogenization (42 passes) and spray-drying as headed, maltodextrin solution added after 40th pass
[17] = Example 5, Table XII, after homogenization (42 passes) and spray-drying, maltodextrin carrier, powder re-dispersed in water
[18] = Example 5, after homogenization (20 passes), 1500 bar, water only, no carrier
[19] = Example 5, before homogenization
[20] = Example 6, after homogenization (11 passages) in agitated bead mill, with starch sodium octenyl succinate
[21] = Example 6, before homogenization
[22] = Example 7, Table XIV, before milling and homogenization
[23] = Example 7, Table XV, before milling and homogenization
[24] = Example 7, after milling (Jet mill) and homogenization (12 times, 700 bar) with starch sodium octenyl succinate
[25] = Example 7, after milling, homogenization and spray drying

## O=c1c(-c2ccc(O)cc2)coc2cc(O)cc(O)c12 [Genistein, 4′,5,7-trihydroxyisoflavone]
[1]
  Particle size change in the "swing" test: Huge crystals are formed
[2]; [3]
  Average particle size D[3, 2]: 0.14 microns
  Average particle size D[4, 3]: 0.83 microns
  Genistein particle size D (v, 0.1): 0.07 microns
  Genistein particle size D (v, 0.5): 0.16 microns
  Genistein particle size D (v, 0.9): 2.86 microns
[2]; [4]
  Average particle size D[3, 2]: 0.15 microns
  Average particle size D[4, 3]: 0.97 microns
  Genistein particle size D (v, 0.1): 0.07 microns
  Genistein particle size D (v, 0.5): 0.17 microns
  Genistein particle size D (v, 0.9): 3.65 microns
[2]; [5]
  Average particle size D[3, 2]: 23.1 microns
  Average particle size D[4, 3]: 48.5 microns
  Genistein particle size D (v, 0.1): 17.1 microns
  Genistein particle size D (v, 0.5): 41.9 microns
  Genistein particle size D (v, 0.9): 91.0 microns
[2]; [6]
  Average particle size D[3, 2]: 0.14 microns
  Average particle size D[4, 3]: 0.76 microns
  Genistein particle size D (v, 0.1): 0.07 microns
  Genistein particle size D (v, 0.5): 0.16 microns
  Genistein particle size D (v, 0.9): 2.42 microns
[2]; [7]
  Average particle size D[3, 2]: 0.14 microns
  Average particle size D[4, 3]: 0.55 microns
  Genistein particle size D (v, 0.1): 0.07 microns
  Genistein particle size D (v, 0.5): 0.15 microns
  Genistein particle size D (v, 0.9): 1.14 microns
[2]; [8]
  Average particle size D[3, 2]: 0.14 microns
  Average particle size D[4, 3]: 0.41 microns
  Genistein particle size D (v, 0.1): 0.07 microns
  Genistein particle size D (v, 0.5): 0.16 microns
  Genistein particle size D (v, 0.9): 0.93 microns
[2]; [9]
  Average particle size D[3, 2]: 23.1 microns
  Average particle size D[4, 3]: 48.5 microns
  Genistein particle size D (v, 0.1): 17.1 microns
  Genistein particle size D (v, 0.5): 41.9 microns
  Genistein particle size D (v, 0.9): 91.0 microns
[2]; [10]
  Average particle size D[3, 2]: 0.14 microns
  Average particle size D[4, 3]: 0.76 microns
  Genistein particle size D (v, 0.1): 0.07 microns
  Genistein particle size D (v, 0.5): 0.16 microns
  Genistein particle size D (v, 0.9): 2.00 microns
[2]; [11]
  Average particle size D[3,2] (surface mean diameter): 0.14 microns
  Average particle size D[4, 3]: 0.43 microns
  Genistein particle size D (v, 0.1): 0.07 microns
  Genistein particle size D (v, 0.5): 0.16 microns
  Genistein particle size D (v, 0.9): 0.97 microns
[2]; [12]
  Average particle size D[3, 2]: 0.14 microns
  Average particle size D[4, 3]: 0.40 microns
  Genistein particle size D (v, 0.1): 0.07 microns
  Genistein particle size D (v, 0.5): 0.16 microns
  Genistein particle size D (v, 0.9): 0.91 microns
[2]; [13]
  Average particle size D[3, 2]: 23.1 microns
  Average particle size D[4, 3]: 48.5 microns
  Genistein particle size D (v, 0.1): 17.1 microns
  Genistein particle size D (v, 0.5): 41.9 microns
  Genistein particle size D (v, 0.9): 91.0 microns
[2]; [14]
  Average particle size D[3, 2]: 0.13 microns
  Average particle size D[4, 3]: 0.83 microns
  Genistein particle size D (v, 0.1): 0.07 microns
  Genistein particle size D (v, 0.5): 0.15 microns
  Genistein particle size D (v, 0.9): 2.62 microns
[2]; [15]
  Average particle size D[3, 2]: 23.1 microns
  Average particle size D[4, 3]: 48.5 microns
  Genistein particle size D (v, 0.1): 17.1 microns
  Genistein particle size D (v, 0.5): 41.9 microns
  Genistein particle size D (v, 0.9): 91.0 microns
[2]; [16]
  Average particle size D[3, 2]: 0.14 microns
  Average particle size D[4, 3]: 0.41 microns
  Genistein particle size D (v, 0.1): 0.07 microns
  Genistein particle size D (v, 0.5): 0.16 microns
  Genistein particle size D (v, 0.9): 0.93 microns
[2]; [17]
  Average particle size D[3, 2]: 0.13 microns
  Average particle size D[4, 3]: 0.41 microns
  Genistein particle size D (v, 0.1): 0.07 microns
  Genistein particle size D (v, 0.5): 0.15 microns
  Genistein particle size D (v, 0.9): 0.93 microns
[2]; [18]
  Average particle size D[3,2] (surface mean diameter): 0.14 microns
  Average particle size D[4, 3]: 0.42 microns
  Genistein particle size D (v, 0.1): 0.07 microns
  Genistein particle size D (v, 0.5): 0.16 microns
  Genistein particle size D (v, 0.9): 0.92 microns
[2]; [19]
  Average particle size D[3,2] (surface mean diameter): 23.1 microns
  Average particle size D[4, 3]: 48.5 microns
  Genistein particle size D (v, 0.1): 17.8 microns
  Genistein particle size D (v, 0.5): 41.4 microns
  Genistein particle size D (v, 0.9): 90.2 microns
[2]; [20]
  Average particle size D[4, 3]: 0.23 microns
  Genistein particle size D (v, 0.1): 0.07 microns
  Genistein particle size D (v, 0.5): 0.16 microns
  Genistein particle size D (v, 0.9): 0.45 microns
[2]; [21]
  Average particle size D[4, 3]: 48.5 microns
  Genistein particle size D (v, 0.1): 17.8 microns
  Genistein particle size D (v, 0.5): 41.4 microns
  Genistein particle size D (v, 0.9): 90.2 microns
[2]; [22]
  Average particle size D[4, 3]: 48.5 microns
  Genistein particle size D (v, 0.1): 17.8 microns
  Genistein particle size D (v, 0.5): 41.4 microns
  Genistein particle size D (v, 0.9): 90.2 microns
[2]; [23]
  Average particle size D[4, 3]: 48.5 microns
  Genistein particle size D (v, 0.1): 17.8 microns
  Genistein particle size D (v, 0.5): 41.4 microns
  Genistein particle size D (v, 0.9): 90.2 microns
[2]; [24]
  Average particle size D[4, 3]: 0.53 microns
  Genistein particle size D (v, 0.1): 0.07 microns
  Genistein particle size D (v, 0.5): 0.18 microns
  Genistein particle size D (v, 0.9): 1.38 microns
[2]; [25]
  Average particle size D[4, 3]: 0.65 microns
  Genistein particle size D (v, 0.1): 0.08 microns
  Genistein particle size D (v, 0.5): 0.19 microns
  Genistein particle size D (v, 0.9): 1.84 microns
